Assay results as given in patent EP4600243A2, “NOVEL BICYCLIC HETEROCYCLYL COMPOUNDS AND USE THEREOF” (Jeil Pharmaceutical Co., Ltd., priority 2022, dated 2024).

These compounds were tested against T1, protein-protein interaction between SOS1 and KRAS G12C (Homo sapiens, UniProt Q07889) (assay: KRAS::SOS1 HTRF binding analysis (KRAS G12C/SOS1 binding kit)). Conditions: compound at 0.1 uM.
T1 construct: purchased Cisbio 64KRASG12PEG
T1 sequence (Q07889 1-1333): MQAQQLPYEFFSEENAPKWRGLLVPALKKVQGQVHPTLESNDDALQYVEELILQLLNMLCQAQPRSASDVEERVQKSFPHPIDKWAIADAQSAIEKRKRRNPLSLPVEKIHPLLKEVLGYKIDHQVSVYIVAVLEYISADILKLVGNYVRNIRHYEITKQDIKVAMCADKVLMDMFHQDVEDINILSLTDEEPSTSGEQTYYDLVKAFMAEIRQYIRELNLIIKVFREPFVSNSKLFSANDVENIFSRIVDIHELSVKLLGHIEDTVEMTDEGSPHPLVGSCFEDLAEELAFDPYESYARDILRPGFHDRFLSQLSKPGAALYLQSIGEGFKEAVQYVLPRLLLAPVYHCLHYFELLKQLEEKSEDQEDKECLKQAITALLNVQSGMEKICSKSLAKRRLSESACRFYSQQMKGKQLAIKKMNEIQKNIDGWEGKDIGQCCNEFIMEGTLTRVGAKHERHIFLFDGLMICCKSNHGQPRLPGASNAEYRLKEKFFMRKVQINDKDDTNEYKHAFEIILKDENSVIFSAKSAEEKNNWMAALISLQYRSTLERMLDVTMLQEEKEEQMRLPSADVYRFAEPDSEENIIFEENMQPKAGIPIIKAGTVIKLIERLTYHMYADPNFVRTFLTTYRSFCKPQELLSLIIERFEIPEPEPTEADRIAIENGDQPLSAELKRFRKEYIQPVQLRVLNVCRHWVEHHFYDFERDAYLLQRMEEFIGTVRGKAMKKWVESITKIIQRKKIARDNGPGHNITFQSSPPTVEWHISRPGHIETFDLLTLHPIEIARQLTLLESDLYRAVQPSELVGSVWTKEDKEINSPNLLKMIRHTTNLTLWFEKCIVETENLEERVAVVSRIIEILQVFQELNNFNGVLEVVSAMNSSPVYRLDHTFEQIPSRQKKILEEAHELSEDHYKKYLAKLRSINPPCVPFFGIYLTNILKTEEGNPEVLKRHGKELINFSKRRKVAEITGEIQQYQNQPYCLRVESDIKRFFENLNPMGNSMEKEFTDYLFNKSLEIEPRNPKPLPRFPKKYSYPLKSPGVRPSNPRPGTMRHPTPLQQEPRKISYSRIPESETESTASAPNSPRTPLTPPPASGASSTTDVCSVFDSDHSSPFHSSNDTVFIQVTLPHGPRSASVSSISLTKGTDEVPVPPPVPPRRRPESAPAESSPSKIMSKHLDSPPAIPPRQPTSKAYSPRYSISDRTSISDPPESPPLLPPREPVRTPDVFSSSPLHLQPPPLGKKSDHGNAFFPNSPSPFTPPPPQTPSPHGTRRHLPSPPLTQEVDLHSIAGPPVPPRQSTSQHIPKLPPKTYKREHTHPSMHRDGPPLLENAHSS
Method: 1-1. KRAS::SOS1 HTRF binding analysis
An SOS1 inhibitory ability of the example compounds of the present invention was confirmed by identifying the effect of inhibiting a protein-protein interaction between SOS1 and KRAS G12C of the compounds according to examples of the present invention.
Specifically, a KRAS G12C/SOS1 binding kit (64KRASG12PEG, Cisbio, France) was purchased and used. 2 µℓ of Tag1-KRAS G12C and 2 µℓ of GTP were premixed and dispensed 4 µl each into a 384 well plate (6007290, PerkinElmer, USA). 2 µℓ of the compound and 4 µℓ of Tag2-SOS1 were placed and then 10 µℓ of premixed Anti-Tag1 XL665 antibody and Anti-Tag2 Tb cryptate antibody was dispensed to each well. The plates were sealed and allowed to react at room temperature for one hour and 40 minutes, and then 665 nm wavelength and 620 nm wavelength were measured using a HTRF® compatible reader (Synergy H4, BioTeK, USA), and the ratio of receptor and donor emission signals for each well was calculated as 665 nm/620 nm×10^4.
(+++: more than 70 to 100% inhibition, ++: more than 40 to 70% inhibition, +: 0 to 40% inhibition) [Table 4]

Compound	inhibition at 0.1 µM [%]
C[C@@H](Nc1cnnc2ccc(N3CC[C@H](O)C3)cc12)c1cccc(C(F)F)c1F [Example 28, (S)-1-(4-(((R)-1-(3-(difluoromethyl)-2-fluorophenyl)ethyl)amino)cinnolin-6-yl)pyrrolidin-3-ol]	0 to 40
C[C@@H](Nc1cnnc2ccc(N3C[C@H]4COC[C@H]4C3)cc12)c1cccc(C(F)F)c1F [Example 29, N-((R)-1-(3-(difluoromethyl)-2-fluorophenyl)ethyl)-6-((3 aR,6aS)-tetrahydro-1H-furo[3,4-c]pyrrol-5(3H)-yl)cinnolin-4-amine]	40 to 70
C[C@@H](Nc1cnnc2ccc(N3CC(O)C3)cc12)c1cccc(C(F)F)c1F [Example 30, (R)-1-(4-((1-(3-(difluoromethyl)-2-fluorophenyl)ethyl)amino)cinnolin-6-yl)azetidin-3-ol]	0 to 40
COC1CN(c2ccc3nncc(N[C@H](C)c4cccc(C(F)F)c4F)c3c2)C1 [Example 31, (R)-N-(1-(3-(difluoromethyl)-2-fluorophenyl)ethyl)-6-(3-methoxyazetidin-1-yl)cinnolin-4-amine]	0 to 40
C[C@@H](Nc1cnnc2ccc(N3CC(C)(O)C3)cc12)c1cccc(C(F)F)c1F [Example 32, (R)-1-(4-((1-(3-(difluoromethyl)-2-fluorophenyl)ethyl)amino)cinnolin-6-yl)-3-methylazetidin-3-ol]	0 to 40
COC1(C)CN(c2ccc3nncc(N[C@H](C)c4cccc(C(F)F)c4F)c3c2)C1 [Example 33, (R)-N-(1-(3-(difluoromethyl)-2-fluorophenyl)ethyl)-6-(3-methoxy-3-methylazetidin-1-yl)cinnolin-4-amine]	0 to 40
COC1CC2(C1)CN(c1ccc3nncc(N[C@H](C)c4cccc(C(F)F)c4F)c3c1)C2 [Example 34, (R)-N-(1-(3-(difluoromethyl)-2-fluorophenyl)ethyl)-6-(6-methoxy-2-azaspiro[3.3]heptan-2-yl)cinnolin-4-amine]	0 to 40
C[C@@H](Nc1cnnc2ccc(N[C@@H]3CCOC3)cc12)c1cccc(C(F)F)c1F [Example 35, N4-((R)-1-(3-(difluoromethyl)-2-fluorophenyl)ethyl)-N6-((R)-tetrahydrofuran-3-yl)cinnolin-4,6-diamine]	0 to 40
C[C@@H](Nc1cnnc2ccc(N[C@H]3CCOC3)cc12)c1cccc(C(F)F)c1F [Example 36, N4-((R)-1-(3-(difluoromethyl)-2-fluorophenyl)ethyl)-N6-((S)-tetrahydrofuran-3-yl)cinnolin-4,6-diamine]	0 to 40
C[C@@H](Nc1cnnc2ccc(NC3CCOCC3)cc12)c1cccc(C(F)F)c1F [Example 37, (R)-N4-(1-(3-(difluoromethyl)-2-fluorophenyl)ethyl)-N6-(tetrahydro-2H-pyran-4-yl)cinnolin-4,6-diamine]	0 to 40
C[C@@H](Nc1cnnc2ccc(N3CC4CC(C3)O4)cc12)c1cccc(C(F)F)c1 [Example 42, 6-(6-oxa-3-azabicyclo[3.1.1]heptan-3-yl)-N-((R)-1-(3-(difluoromethyl)phenyl)ethyl)cinnolin-4-amine]	0 to 40
C[C@@H](Nc1cnnc2ccc(N3CC4CC(C3)O4)cc12)c1cccc(C(F)(F)F)c1 [Example 47, 6-(6-oxa-3-azabicyclo[3.1.1]heptan-3-yl)-N-((R)-1-(3-(trifluoromethyl)phenyl)ethyl)cinnolin-4-amine]	0 to 40
Cc1c([C@@H](C)Nc2cnnc3ccc(N4CC5CC(C4)O5)cc23)cccc1C(F)(F)F [Example 48, 6-(6-oxa-3-azabicyclo[3.1.1]heptan-3-yl)-N-((R)-1-(2-methyl-3-(trifluoromethyl)phenyl)ethyl)cinnolin-4-amine]	0 to 40
Cc1c(C#N)cccc1[C@@H](C)Nc1cnnc2ccc(N3CC4CC(C3)O4)cc12 [Example 50, 3-((1R)-1-((6-(6-oxa-3-azabicyclo[3.1.1]heptan-3-yl)cinnolin-4-yl)amino)ethyl)-2-methylbenzonitrile]	0 to 40
Cc1c(C#N)cccc1[C@@H](C)Nc1cnnc2ccc(C3=CCN(C)CC3)cc12 [Example 52, (R)-2-methyl-3-(1-(6-(1-methyl-1,2,3,6-tetrahydropyridin-4-yl)cinnolin-4-ylamino)ethyl)benzonitrile]	0 to 40
C[C@@H](Nc1cnnc2ccc(C3=CCN(C)CC3)cc12)c1cccc(C#N)c1 [Example 53, (R)-3-(1-(6-(1-methyl-1,2,3,6-tetrahydropyridin-4-yl)cinnolin-4-ylamino)ethyl)benzonitrile]	0 to 40

The next lines start with the values.

inhibition at 0.1 µM [%]	Compound
40 to 70	C[C@@H](Nc1cnnc2ccc(N[C@@H]3CCN(C)C3)cc12)c1cccc(C(F)F)c1F [Example 38, N4-((R)-1-(3-(difluoromethyl)-2-fluorophenyl)ethyl)-N6-((R)-1-methylpyrrolidin-3-yl)cinnolin-4,6-diamine]
70 to 100	C[C@@H](Nc1cnnc2ccc(N[C@@H]3CCNC3)cc12)c1cccc(C(F)F)c1F [Example 39, N4-((R)-1-(3-(difluoromethyl)-2-fluorophenyl)ethyl)-N6-((R)-pyrrolidin-3-yl)cinnolin-4,6-diamine]
40 to 70	C[C@@H](Nc1cnnc2ccc(N[C@H]3CCNC3)cc12)c1cccc(C(F)F)c1F [Example 40, N4-((R)-1-(3-(difluoromethyl)-2-fluorophenyl)ethyl)-N6-((S)-pyrrolidin-3-yl)cinnolin-4,6-diamine]
70 to 100	C[C@@H](Nc1cnnc2ccc(N3CCN(C(=O)C4COC4)CC3)cc12)c1cccc(C(F)F)c1F [Example 41, (R)-(4-(4-(1-(3-(difluoromethyl)-2-fluorophenyl)ethylamino)cinnolin-6-yl)piperazin-1-yl)(oxetan-3-yl)methanone]
0 to 40	C[C@@H](Nc1cnnc2ccc(N3CCC(C)(O)CC3)cc12)c1cccc(C(F)F)c1 [Example 43, (R)-1-(4-((1-(3-(difluoromethyl)phenyl)ethyl)amino)cinnolin-6-yl)-4-methylpiperidin-4-ol]
0 to 40	C[C@@H](Nc1cnnc2ccc(N3C[C@H]4C[C@@H]3CO4)cc12)c1cccc(C(F)F)c1 [Example 44, 6-((1R,4R)-2-oxa-5-azabicyclo[2.2.1]heptan-5-yl)-N-((R)-1-(3-(difluoromethyl)phenyl)ethyl)cinnolin-4-amine]
0 to 40	C[C@@H](Nc1cnnc2ccc(N3CC(C)(O)C3)cc12)c1cccc(C(F)F)c1 [Example 45, (R)-1-(4-((1-(3-(difluoromethyl)phenyl)ethyl)amino)cinnolin-6-yl)-3-methylazetidin-3-ol]
0 to 40	Cc1c([C@@H](C)Nc2cnnc3ccc(N4CC5(CN(C)C5)C4)cc23)cccc1C(F)(F)F [Example 49, (R)-N-(1-(2-methyl-3-(trifluoromethyl)phenyl)ethyl)-6-(6-methyl-2,6-diazaspiro[3.3]heptan-2-yl)cinnolin-4-amine]
0 to 40	Cc1c(C#N)cccc1[C@@H](C)Nc1cnnc2ccc(N3CCC(C)(O)CC3)cc12 [Example 51, (R)-3-(1-((6-(4-hydroxy-4-methylpiperidin-1-yl)cinnolin-4-yl)amino)ethyl)-2-methylbenzonitrile]
0 to 40	C[C@@H](Nc1cnnc2ccc(N[C@@H]3CCNC3)cc12)c1cccc(C#N)c1 [Example 54, 3-((R)-1-(6-((R)-pyrrolidin-3-ylamino)cinnolin-4-ylamino)ethyl)benzonitrile]
